Here are results for five molecules from patent US11458138B2 (Novartis AG, priority 2017, dated 2022).

A word on the IC50: it is the concentration needed to halve the response being measured. As a reminder, the EC50 is the concentration that produces a half-maximal response. The low end stands for an effect from little substance, the high end for a need for much substance.

Experiment [1] deals with human limbal stem cells (LSCs). The experiment is described as follows: Human limbal stem cell population expansion: percentage of p63alpha-positive cells. Particulars: 10 micromolar, XVIVO15 medium. The experiment is classed as cell-based. How it is done:
(§1) Cells were cultured at 37° C. in 5% CO2.
For each compound, two sets of cultures were generated. A first set of cultures was fixed in 4% PFA for 20 minutes at room temperature after cells isolated from the cornea had attached to the cell culture dish (typically 24 h after cell plating). A second set of cultures was fixed in 4% PFA for 20 minutes at room temperature after being cultured for two passages. Cells were passaged when they reached 90-100% confluence.
In order to observe that the expanded cell population expressed p63alpha, this was measured by immunohistochemistry as follows. The fixed cell cultures were permeabilized and blocked in a blocking solution of 0.3% Triton X-100 (Sigma-Aldrich) and 3% donkey serum in PBS for 30 minutes. Cells were then labeled with primary antibody in the blocking solution for 12 hours at 4° C. Primary antibody used was p63alpha from Cell Signalling. Samples were washed in PBS three times and donkey-raised secondary antibody Alexa Fluor 488 (Molecular Probes) at 1:500 dilution were applied for 30 minutes at room temperature. Cell nuclei were then labeled in a solution of 0.5 micromolar of Sytox Orange (ThermoFisher) in PBS for 5 minutes at room temperature.
To evaluate the percentage of p63alpha-positive cells, the number of cells labeled by the anti-p63alpha antibody was counted and the total number of cells was determined by counting the number of nuclei stained by Sytox Orange. The proportion of p63alpha-positive cells was then determined by calculating the percentage of Sytox-orange-positive nuclei that also expressed p63alpha.

For experiment [2], the system named is Phospho-YAP (SER127) in HaCaT cells. The experiment can be described thus: pYAP HTRF Assay (HaCaT Cells). The following applies: Homo sapiens, 2 hours. The experiment is classed as cell-based, human. The procedure, abridged: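 HaCaT cells at 5500 cells/well were cultured 48 hours at 37° C, then treated with compound for 2 hours. Phospho-YAP (Ser127) was detected by HTRF after an overnight (20 hrs) room-temperature incubation, read as the 665 nm/620 nm ratio.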
A general note: TR-FRET usually uses a lanthanide donor and a delayed reading to cut background.

The subject of experiment [3] is YAP nuclear translocation in HaCaT cells. The experiment is described as follows: YAP Translocation Assay (HaCaT Cells). The experiment is classed as cell-based, human. Particulars: Homo sapiens, 24 hours. The procedure, abridged: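 HaCaT cells (20,000/well) in DMEM + 10% FBS were plated overnight at 37° C, then exposed to compound for 24 h at 37° C. Cells were fixed with PFA, permeabilized with 0.1% Triton/1.5% BSA and imaged by high-content imaging.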

The next experiment concerns the target LATS1 (Homo sapiens (Human), UniProt O95835). The experiment is described as follows: LATS1 biochemical assay (Table 1A, Compound Examples 1-290; method in the earlier part).
Experiment [4] has as its system human corneal endothelial cells (CECs). The experiment can be described thus: Human corneal endothelial cell population expansion: fold cell expansion. The following applies: 10 micromolar compound, X-VIVO15 medium, 10 days, ratio of expanded to seeded cells. It counts as cell-based. How it is done: as §1
(§2) For each compound, two sets of cultures were generated. A first set of cultures was fixed in 4% PFA for 20 minutes at room temperature after cells isolated from the cornea had attached to the cell culture dish (typically 24 h after cell plating). A second set of cultures was fixed in 4% PFA for 20 minutes at room temperature 10 days after the first one.
(§3) To measure cell density in all fixed cultures, the number of nuclei stained with Sytox Orange (ThermoFisher) were counted per surface area as follows: fixed cell cultures fixed were permeabilized in a solution of 0.3% Triton X-100 (Sigma-Aldrich). Cells were then labeled in a solution of 0.5 micromolar of Sytox Orange in PBS for 5 minutes at room temperature. Nuclei were counted under a Zeiss epifluorescence microscope. The expansion factor was then determined by calculating the ratio of the expanded population of cells to population of seeded cells.

For experiment [5] the test system is unchanged. The experiment can be described thus: Human corneal endothelial cell population expansion: endothelial cell density in vitro. It counts as cell-based. The following applies: 10 micromolar compound, X-VIVO15 medium, 10 days. How it is done: as §1, §2, §3
Experiment [6] deals with Human LATS2 kinase domain protein (Homo sapiens (Human), UniProt Q9NRM7). The experiment can be described thus: LATS2 Biochemical Caliper Assay (Compound Examples 1-290). The following applies: 400 micromolar ATP. The procedure, abridged: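 LATS2 catalytic domain (aa 553-1088), co-purified with His-tagged MOBKL1A, reacted with compound for 3 h at 25° C before EDTA (25 mM) stop. Substrate and product separated by microfluidic electrophoresis (Caliper LabChip 3000) and quantified by fluorescence intensity.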
Chain of Human LATS2 kinase domain protein (Q9NRM7 553-1088): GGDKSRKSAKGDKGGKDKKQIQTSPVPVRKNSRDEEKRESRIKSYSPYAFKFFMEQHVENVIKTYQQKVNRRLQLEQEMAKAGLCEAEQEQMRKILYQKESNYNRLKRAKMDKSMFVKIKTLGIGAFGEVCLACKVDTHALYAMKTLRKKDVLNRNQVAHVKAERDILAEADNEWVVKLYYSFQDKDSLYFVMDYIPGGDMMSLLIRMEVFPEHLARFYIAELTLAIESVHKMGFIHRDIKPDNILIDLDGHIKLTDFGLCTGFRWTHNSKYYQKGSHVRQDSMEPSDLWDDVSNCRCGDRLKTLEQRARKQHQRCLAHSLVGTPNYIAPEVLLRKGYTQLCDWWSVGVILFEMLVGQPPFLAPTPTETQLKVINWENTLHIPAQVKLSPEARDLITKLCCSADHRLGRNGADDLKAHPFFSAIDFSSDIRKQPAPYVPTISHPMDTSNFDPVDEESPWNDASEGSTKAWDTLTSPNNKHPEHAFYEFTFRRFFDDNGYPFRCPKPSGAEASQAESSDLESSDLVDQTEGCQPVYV
Chain of Human LATS2 kinase domain protein (Q7L9L4 whole entry partner, the tested form may be a part): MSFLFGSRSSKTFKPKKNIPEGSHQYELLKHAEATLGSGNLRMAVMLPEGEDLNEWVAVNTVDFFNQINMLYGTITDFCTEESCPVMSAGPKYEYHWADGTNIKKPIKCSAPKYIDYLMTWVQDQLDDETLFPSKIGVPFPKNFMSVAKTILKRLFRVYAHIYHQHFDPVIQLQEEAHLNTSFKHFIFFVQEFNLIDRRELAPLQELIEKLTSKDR

In experiment [7] the target is Human LATS1 kinase domain protein (Homo sapiens (Human), UniProt O95835). The experiment is described as follows: LATS1 Biochemical Caliper Assay. Particulars: 400 micromolar ATP. How it is done: Human LATS1 kinase domain protein was purchased from Carnabio (catalogue number 01-123), which harbors the catalytic domain of amino acids 589-1130, and was co-purified with human His-tagged MOBKL1A (NP_775-739). 5 microlitre of enzyme buffer, 100 nL of compounds and 5 microlitre of localising aid buffer were added into 384-well plates. The final assay reaction mix contains 100 mM HEPES, pH7.5, 0.1% BSA, 0.01% Triton X-100, 1 mM DTT, 10 mM MgCl2, 10 micromolar Sodium Orthovanadate, 10 micromolar Beta-Glycerophosphate, 400 micromolar ATP, 1% DMSO, 1.1 nM LATS1 enzyme (Carnabio, 01-123), 1 micromolar localising aid of FAM-[…]-COOH (SEQ ID NO: 24) (NanoSyn). The plates were incubated at 25° C. for 3 hours. 40 microlitre of stop buffer with 25 mM EDTA (NanoSyn) was added to each well to terminate the reaction. Localising aids and products were separated electrophoretically using the microfluidic-based Caliper Labchip 3000 Drug Discovery System (Caliper Life Sciences). Plates were read using blue laser excitation and green fluorescence detection and quantified by fluorescence intensity. […] According to this assay the LATS1 IC50 values in micromolar for the following compounds are: […]
Chain of Human LATS1 kinase domain protein (O95835 whole entry, looked up, the tested form may be a part): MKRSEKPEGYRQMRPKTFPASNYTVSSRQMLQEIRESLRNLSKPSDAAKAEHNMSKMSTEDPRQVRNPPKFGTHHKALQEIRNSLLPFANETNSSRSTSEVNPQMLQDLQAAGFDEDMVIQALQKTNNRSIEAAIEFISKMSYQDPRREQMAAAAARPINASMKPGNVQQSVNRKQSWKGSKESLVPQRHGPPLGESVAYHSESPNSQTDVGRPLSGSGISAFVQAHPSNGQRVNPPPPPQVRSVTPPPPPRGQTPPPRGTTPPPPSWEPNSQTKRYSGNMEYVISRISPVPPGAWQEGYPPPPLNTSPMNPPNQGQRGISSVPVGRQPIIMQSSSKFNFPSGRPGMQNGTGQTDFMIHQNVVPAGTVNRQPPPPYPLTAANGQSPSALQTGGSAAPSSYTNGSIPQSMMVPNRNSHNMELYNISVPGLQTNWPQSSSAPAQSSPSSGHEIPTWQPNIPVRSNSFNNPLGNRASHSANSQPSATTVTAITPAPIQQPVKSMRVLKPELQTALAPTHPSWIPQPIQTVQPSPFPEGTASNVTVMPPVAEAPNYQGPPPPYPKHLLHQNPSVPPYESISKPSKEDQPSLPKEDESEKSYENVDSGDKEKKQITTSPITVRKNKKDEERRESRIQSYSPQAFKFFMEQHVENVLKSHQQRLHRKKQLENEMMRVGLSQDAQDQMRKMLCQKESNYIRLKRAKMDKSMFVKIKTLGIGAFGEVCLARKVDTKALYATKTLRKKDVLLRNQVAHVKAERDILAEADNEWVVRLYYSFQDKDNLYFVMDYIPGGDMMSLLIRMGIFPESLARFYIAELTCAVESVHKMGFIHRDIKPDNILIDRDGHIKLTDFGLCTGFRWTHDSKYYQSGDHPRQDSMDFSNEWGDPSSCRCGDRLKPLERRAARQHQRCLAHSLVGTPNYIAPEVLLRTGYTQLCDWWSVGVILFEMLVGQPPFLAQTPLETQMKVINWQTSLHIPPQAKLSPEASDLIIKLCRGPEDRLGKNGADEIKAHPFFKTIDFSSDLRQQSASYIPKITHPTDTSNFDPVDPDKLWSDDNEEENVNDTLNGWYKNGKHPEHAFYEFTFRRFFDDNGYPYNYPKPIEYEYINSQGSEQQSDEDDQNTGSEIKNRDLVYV
Chain of Human LATS1 kinase domain protein (Q7L9L4 whole entry partner, looked up, the tested form may be a part): as the sequence (Q7L9L4 whole entry partner, the tested form may be a part) above

Chain of LATS1 (O95835 whole entry, looked up): as the sequence (O95835 whole entry, looked up, the tested form may be a part) above
Chain of LATS1 (Q7L9L4 whole entry partner, looked up): as the sequence (Q7L9L4 whole entry partner, the tested form may be a part) above

Turning to `CCCNc1nc(-c2ccncc2)nc2cnccc12` [Example 14, N-propyl-2-(pyridin-4-yl)pyrido[3,4-d]pyrimidin-4-amine], the “Percentage of p63a-positive cells” value in experiment [1] was found to be 93%. Further, the IC50 in experiment [2] turned out to be 7310 nM; on LATS1 it was 2 nM; in experiment [6], 50 nM; in experiment [7], 34 nM. The molecule also showed an EC50 in experiment [3] of 4250 nM. Moreover, in experiment [4], the “Expansion factor (Fold Cell expansion)” value amounted to 337. The “Endothelial Cell density in vitro” value in experiment [5] came out at 3271 cells/mm^2.

As to `CC(C)(O)CC(C)(C)Nc1nc(-c2ccncc2)nc2cnccc12` [Example 49, 2,4-dimethyl-4-{[2-(pyridin-4-yl)pyrido[3,4-d]pyrimidin-4-yl]amino}pentan-2-ol], the “Percentage of p63a-positive cells” value in experiment [1] is listed as 92%. The IC50 was 607 nM in experiment [2], 1 nM at LATS1, 21 nM in experiment [6] and 12 nM in experiment [7]. In experiment [3], a half-maximal effect (EC50) was put at 1170 nM. The “Expansion factor (Fold Cell expansion)” value in experiment [4] is given as 426. Besides, in experiment [5], the “Endothelial Cell density in vitro” value is 3873 cells/mm^2.

Turning to `c1cc(-c2nc(NC3CCCC3)c3ccncc3n2)ccn1` [Example 65, N-cyclopentyl-2-(pyridin-4-yl)pyrido[3,4-d]pyrimidin-4-amine], the “Percentage of p63a-positive cells” value in experiment [1] turned out to be 87%. The IC50 turned out to be 895 nM in experiment [2], 2 nM against LATS1, 30 nM in experiment [6] and 22 nM in experiment [7]. The EC50 in experiment [3] stood at 1990 nM. Moreover, in experiment [4], the “Expansion factor (Fold Cell expansion)” value is 203. For the same molecule, the “Endothelial Cell density in vitro” value in experiment [5] is 1702 cells/mm^2.

Turning to `Cc1n[nH]cc1-c1nc(NC2(C)CC2)c2ccncc2n1` [Example 133, 2-(3-methyl-1H-pyrazol-4-yl)-N-(1-methylcyclopropyl)pyrido[3,4-d]pyrimidin-4-amine], the “Percentage of p63a-positive cells” value in experiment [1] worked out at 89%. For the same molecule, the IC50 was found to be 414 nM in experiment [2], 2 nM against LATS1, 4 nM in experiment [6] and 4 nM in experiment [7]. In addition, the EC50 in experiment [3] was determined as 1670 nM. Moreover, in experiment [4], the “Expansion factor (Fold Cell expansion)” value is recorded as 273. Besides, the “Endothelial Cell density in vitro” value in experiment [5] is listed as 2028 cells/mm^2.

For `CC(C)(C)Nc1cc(-c2ccncc2)nc2cnccc12` [Example 261, N-(tert-butyl)-2-(pyridin-4-yl)-1,7-naphthyridin-4-amine], in experiment [1], the “Percentage of p63a-positive cells” value worked out at 93%. The IC50 in experiment [2] was determined as 202 nM; against LATS1, 1 nM; in experiment [6], 4 nM. In experiment [3], this molecule gave a concentration for a half-maximal effect (EC50) of 1220 nM. The “Expansion factor (Fold Cell expansion)” value in experiment [4] is 461. For the same molecule, the “Endothelial Cell density in vitro” value in experiment [5] came to 4308 cells/mm^2.
